Results published in patent US5008416A, “Organogermanium compound, process for the preparation of same as well as use thereof” (Sanwa Kagaku Kenkyusho Co., Ltd., priority 1989, dated 1991).

Legend:
[1] = system: tumor bearing mice; experiment: Influence on antibody production in tumor bearing mice (Pharmacological Experiment 1); format: in vivo, mouse (ICR male); settings: for Number of PFC: 5 days, mean ± standard error, n = 7
Experimental: Influence of the organogermanium compound on antibody production ability is checked with use of tumor bearing mice, as experimental animals reduced in their immunity response.
Tumor bearing mice were prepared by implanting 2×10^6 cells of mouse tumor cell (Sarcoma 180) under a skin of each ICR male mouse (age of 6 weeks) to form a solid tumor.
The organogermanium compound (Production Example 4) dissolved in 4% bovine serum albumin solution was orally administered to the tumor bearing mice over 5 days after lapsed 9 days from the implantation of the tumor cells, by a dose of 0.1, 1.0 or 10.0 mg/kg/day.
After lapsed 14 days from the implantation, 2×10^8 cells of sheep red blood cells (SRBC) were injected in a tail vein of the mice for sensitization. After 4 days from the sensitization, spleen was removed and number of PFC in 10^6 spleen cells was measured, as an index of the antibody production in the tumor bearing mice.

[2] = system: NZB/WF1 mice; experiment: Influence on antibody production in NZB/WF1 mice (Pharmacological Experiment 2); format: in vivo, mouse (NZB/WF1 female); settings: for Number of PFC: 3 times, mean ± standard error, n = 5, (*) significant vs Control
Experimental: Influence of the organogermanium compound on antibody production is checked with use of NZB/WF1 mice who generate an autoimmune disease due to polyclonal activation of B cells, caused by functional reduction of suppresser T cell activities.
NZB/WF1 female mice (age of 11 weeks) were classified into Control group and Test groups (5 mice for each group), and 2×10^8 cells of SRBC were injected in a tail vein of each mouse for sensitization.
To the mice in each Test group, the organogermanium compound (Example 4) dissolved in 4% bovine serum albumin solution was orally administered in a dose of 1.0 or 10.0 mg/kg/day at 3 time, namely the day before, just after and the day after the sensitization.
After 4 days from the sensitization, spleen was removed from each mouse and number of PFC in 10^6 spleen cells was measured, as an index of the antibody production in the NZB/WF1 mice.

[3] = system: tumor bearing mice; experiment: Influence on delayed type hypersensitivity in tumor bearing mice (Pharmacological Experiment 3); format: in vivo, mouse (ICR male); settings: for Foot pad swelling: 24 hours, mean ± standard error, n = 10
Experimental: To investigate the effect of the organogermanium compound on the cellular immunity, we employed the delayed type hypersensitivity (DTH) of mice. Tumor bearing mice were used as experimental animals with reduced immunity and effect of the compound on the reduced DTH reaction was assayed.
Sarcoma 180 cells (10^6 cells) were intraperitoneally implanted to ICR male mice (age of 8 weeks) and after 3 hours from the implantation, 10^6 cells of SRBC were injected by intravenous route. Four days later, 2×10^8 cells of SRBC were intracutaneus injection to hind foot pad. After 24 hours from the injection, the swelling of the foot pad was observed by stereoscopic microscope.
To the mice in each test group, the organogermanium compound (Example 4) dissolved in 4% bovine serum albumin was orally administered at the time 4 days before the immunization at the dose of 0.1, 1.0 and 10.0 mg/kg.

Sodium 2-oxygermylethanesulfonate polymer [Example 4]
Number of PFC ([1]; 0.1 mg/kg/day orally, (*) p < 0.05 vs tumor bearing): 745 ± 66 PFC in 10^6 spleen cells | Number of PFC ([1]; 1.0 mg/kg/day orally): 948 ± 195 PFC in 10^6 spleen cells | Number of PFC ([1]; 10.0 mg/kg/day orally, (***) p < 0.001 vs tumor bearing): 1071 ± 89 PFC in 10^6 spleen cells | Antibody production (result in words) ([1]; 0.1-10.0 mg/kg/day orally, depending on dosing amount): the reduced antibody production due to generation of the tumor increased to a normal level | Number of PFC ([2]; 1.0 mg/kg/day orally): 3511 ± 302 PFC in 10^6 spleen cells | Number of PFC ([2]; 10.0 mg/kg/day orally): 3800 ± 360 PFC in 10^6 spleen cells | Number of PFC (result in words) ([2]; treatment groups, 1.0 or 10.0 mg/kg/day orally): the number of PFC was significantly reduced | Foot pad swelling ([3]; 0.1 mg/kg orally): 66.8 ± 7.5 ×0.01 mm | Foot pad swelling ([3]; 1.0 mg/kg orally, (***) p < 0.001 vs tumor bearing): 85.0 ± 5.9 ×0.01 mm | Foot pad swelling ([3]; 10.0 mg/kg orally, (***) p < 0.001 vs tumor bearing): 74.3 ± 4.9 ×0.01 mm | DTH response of tumor bearing mice (result in words) ([3]; 0.1, 1.0 and 10.0 mg/kg orally): significantly restored the reduced DTH response to normal level
